Results reported in patent publication US10308634B2, “Substituted indazoles, methods for the production thereof, pharmaceutical preparations that contain said new substituted indazoles, and use of said new substituted indazoles to produce drugs” (BAYER PHARMA AKTIENGESELLSCHAFT, priority 2014, dated 2019).
Like-named read-outs stand apart in the source and are kept apart here.

What was measured:
human IRAK4 = human IRAK4 (Homo sapiens (Human), UniProt Q9NWZ3); assay: IRAK4 kinase assay (IRAK4 TR-FRET assay); type: biochemical
Protocol: The IRAK4-inhibitory activity of the inventive substances was measured in the IRAK4 TR-FRET assay (TR-FRET=Time Resolved Fluorescence Resonance Energy Transfer) described hereinafter.
Recombinant fusion protein from N-terminal GST (glutathione S-transferase) and human IRAK4, expressed in baculovirus-infected insect cells (Hi5, BTI-TN-5B1-4, cell line purchased from Invitrogen, catalogue No. B855-02) and purified via affinity chromatography, was used as enzyme. The substrate used for the kinase reaction was the biotinylated peptide biotin-Ahx-[…] (C-terminus in amide form) which can be purchased, for example, from Biosyntan GmbH (Berlin-Buch).
50 nl of the respective solution were pipetted into a black low-volume 384-well microtitre plate (Greiner Bio-One, Frickenhausen, Germany), 2 μl of a solution of IRAK4 in assay buffer [50 mM HEPES pH 7.5, 5 mM MgCl2, 1.0 mM dithiothreitol, 30 μM activated sodium orthovanadate, 0.1% (w/v) of bovine gamma-globulin (BGG) 0.04% (v/v) nonidet-P40 (Sigma)] were added and the mixture was incubated for 15 min to allow prebinding of the substances to the enzyme prior to the kinase reaction. […] The concentration of the IRAK4 was adjusted to the respective activity of the enzyme and set such that the assay was carried out in the linear range. Typical concentrations were in the order of about 0.2 nM.
The resulting mixture was incubated at 22° C. for 1 h to allow formation of a complex of the biotinylated phosphorylated substrate and the detection reagents. The amount of the phosphorylated substrate was then evaluated by measuring the resonance energy transfer from europium chelate-labelled anti-mouse-IgG antibody to streptavidin-XL665. […] The IC50 values were calculated by a 4-parameter fit.

THP-1 cells = assay: TNF-α secretion in THP-1 cells (LPS-triggered, HTRF); type: cell-based; conditions: Homo sapiens, read-out: IC50 with respect to the secretion of TNF-α in THP-1 cells
Protocol: This test is suited to test substances for their ability to inhibit secretion of TNF-α (tumour necrosis factor alpha) in THP-1 cells (human monocytic acute leukaemia cell line). TNF-α is a cytokine involved in inflammatory processes. In this test, TNF-α secretion is triggered by incubation with bacterial lipopolysaccharide (LPS).
The cells were incubated at room temperature for 15 min. 2-2.5 μl of 0.1 μg/ml LPS (Sigma, Escherichia coli 055:B5, Cat. No. L5418) dissolved in cell culture medium (final concentration 0.05 μg/ml) were then dispensed into each well. As neutral control, cells were treated with 0.05 μg/ml LPS and 1% DMSO and, as inhibitor control, with 1% DMSO only.
The amount of TNF-α was determined using the TNF-alpha HTRF Detection Kit (Cisbio, Cat. No. 62TNFPEB/C). To this end, 2 μl of the detection solution in each case, consisting of anti-TNF-α-XL665 conjugate and anti-TNF-α-cryptate conjugate dissolved in the reconstitution buffer in accordance with the manufacturer's instructions, were added for the HTRF (Homogeneous Time-Resolved Fluorescence) test. After the addition, the mixture was incubated either at room temperature for 3 h or at 4° C. overnight.
The activity of the substances is expressed as the ratio between neutral and inhibitor control in percent. The IC50 values were calculated using a 4-parameter fit.

[1] = TR-FRET, 1 mM ATP, read-out: IC50 in the IRAK4 kinase assay

human IRAK4, sequence (Q9NWZ3 whole entry): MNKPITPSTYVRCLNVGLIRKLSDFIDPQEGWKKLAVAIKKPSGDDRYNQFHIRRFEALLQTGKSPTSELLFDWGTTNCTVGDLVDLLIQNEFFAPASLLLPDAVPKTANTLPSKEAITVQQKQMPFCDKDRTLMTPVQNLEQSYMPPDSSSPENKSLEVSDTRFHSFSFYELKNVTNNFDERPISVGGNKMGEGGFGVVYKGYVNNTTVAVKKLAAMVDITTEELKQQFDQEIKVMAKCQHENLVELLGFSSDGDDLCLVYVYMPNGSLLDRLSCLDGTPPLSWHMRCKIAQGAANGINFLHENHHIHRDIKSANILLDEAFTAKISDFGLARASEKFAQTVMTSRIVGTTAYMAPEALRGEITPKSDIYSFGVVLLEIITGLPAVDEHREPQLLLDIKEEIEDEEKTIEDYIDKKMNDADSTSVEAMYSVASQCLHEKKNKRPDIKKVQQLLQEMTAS

| SMILES | IC50 (human IRAK4; [1]) [nM] | IC50 (THP-1 cells; THP-1, 0.05 μg/ml LPS, 17 h) [nM] | IC50 (THP-1 cells; THP-1, 17 h) [nM] | IC50 (human IRAK4) [nM] |
| --- | --- | --- | --- | --- |
| COCCn1cc2cc(NC(=O)c3cccc(C(F)(F)F)n3)c(C(C)(C)O)cc2n1 [Example 1, N-[6-(2-Hydroxypropan-2-yl)-2-(2-methoxyethyl)-2H-indazol-5-yl]-6-(trifluoromethyl)pyridine-2-carboxamide] | 30.6 | 1000 |  |  |
| COCCn1cc2cc(NC(=O)c3cccc(C(F)(F)F)n3)c(CO)cc2n1 [Example 2, N-[6-(Hydroxymethyl)-2-(2-methoxyethyl)-2H-indazol-5-yl]-6-(trifluoromethyl)pyridine-2-carboxamide] |  | 15100 |  |  |
| COCCCn1cc2cc(NC(=O)c3cccc(C(F)(F)F)n3)c(CO)cc2n1 [Example 4, N-[6-(Hydroxymethyl)-2-(3-methoxypropyl)-2H-indazol-5-yl]-6-(trifluoromethyl)pyridine-2-carboxamide] | 52.7 | 5600 |  |  |
| CC(C)(O)c1cc2nn(CCO)cc2cc1NC(=O)c1cccc(C(F)(F)F)n1 [Example 5, N-[2-(2-Hydroxyethyl)-6-(2-hydroxypropan-2-yl)-2H-indazol-5-yl]-6-(trifluoromethyl)pyridine-2-carboxamide] | 264 | 5400 |  |  |
| CC(C)(O)c1cc2nn(CCCO)cc2cc1NC(=O)c1cccc(C(F)(F)F)n1 [Example 6, N-[6-(2-Hydroxypropan-2-yl)-2-(3-hydroxypropyl)-2H-indazol-5-yl]-6-(trifluoromethyl)pyridine-2-carboxamide] | 35.7 | 900 |  |  |
| O=C(Nc1cc2cn(CCO)nc2cc1CO)c1cccc(C(F)(F)F)n1 [Example 7, N-[2-(2-Hydroxyethyl)-6-(hydroxymethyl)-2H-indazol-5-yl]-6-(trifluoromethyl)pyridine-2-carboxamide] | 867 | 16400 |  |  |
| CC(C)(O)c1cc2nn(CC3COC3)cc2cc1NC(=O)c1cccc(C(F)(F)F)n1 [Example 8, N-[6-(2-Hydroxypropan-2-yl)-2-(oxetan-3-ylmethyl)-2H-indazol-5-yl]-6-(trifluoromethyl)pyridine-2-carboxamide] | 15 | 1000 |  |  |
| O=C(Nc1cc2cn(CC3COC3)nc2cc1CO)c1cccc(C(F)(F)F)n1 [Example 9, N-[6-(Hydroxymethyl)-2-(oxetan-3-ylmethyl)-2H-indazol-5-yl]-6-(trifluoromethyl)pyridine-2-carboxamide] | 104 | 6500 |  |  |
| CC(C)(O)c1cc2nn(CCCS(C)(=O)=O)cc2cc1NC(=O)c1cccc(C(F)(F)F)n1 [Example 10, N-{6-(2-Hydroxypropan-2-yl)-2-[3-(methylsulphonyl)propyl]-2H-indazol-5-yl}-6-(trifluoromethyl)pyridine-2-carboxamide] | 18.5 | 1000 |  |  |
| CC(C)(O)CCn1cc2cc(NC(=O)c3cccc(C(F)F)n3)c(C(C)(C)O)cc2n1 [Example 13, 6-(Difluoromethyl)-N-[2-(3-hydroxy-3-methylbutyl)-6-(2-hydroxypropan-2-yl)-2H-indazol-5-yl]pyridine-2-carboxamide] | 1.3 |  | 100 |  |
| CC(C)(O)c1cc2nn(CCS(C)(=O)=O)cc2cc1NC(=O)c1cccc(C(F)F)n1 [Example 14, 6-(Difluoromethyl)-N-{6-(2-hydroxypropan-2-yl)-2-[2-(methylsulphonyl)ethyl]-2H-indazol-5-yl}pyridine-2-carboxamide] | 10.8 | 200 |  |  |
| CC(C)(O)c1cc2nn(CCCO)cc2cc1NC(=O)c1cccc(C(F)F)n1 [Example 15, 6-(Difluoromethyl)-N-[6-(2-hydroxypropan-2-yl)-2-(3-hydroxypropyl)-2H-indazol-5-yl]pyridine-2-carboxamide] | 12.3 | 200 |  |  |
| CC(C)(O)c1cc2nn(CCCC(F)(F)F)cc2cc1NC(=O)c1cccc(C(F)(F)F)n1 [Example 16, N-[6-(2-Hydroxypropan-2-yl)-2-(4,4,4-trifluorobutyl)-2H-indazol-5-yl]-6-(trifluoromethyl)pyridine-2-carboxamide] | 21.5 | 200 |  |  |
| CC(C)(O)c1cc2nn(CCCOC(F)(F)F)cc2cc1NC(=O)c1cccc(C(F)(F)F)n1 [Example 17, N-{6-(2-Hydroxypropan-2-yl)-2-[3-(trifluoromethoxy)propyl]-2H-indazol-5-yl}-6-(trifluoromethyl)pyridine-2-carboxamide] | 36 | 500 |  |  |
| CC(C)(O)c1cc2nn(CCCOCC(F)(F)F)cc2cc1NC(=O)c1cccc(C(F)(F)F)n1 [Example 18, N-{6-(2-Hydroxypropan-2-yl)-2-[3-(2,2,2-trifluoroethoxy)propyl]-2H-indazol-5-yl}-6-(trifluoromethyl)pyridine-2-carboxamide] | 47.5 | 300 |  |  |
| Cc1nc(C(=O)Nc2cc3cn(CCC(C)(C)O)nc3cc2C(C)(C)O)ccc1F [Example 19, 5-Fluoro-N-[2-(3-hydroxy-3-methylbutyl)-6-(2-hydroxypropan-2-yl)-2H-indazol-5-yl]-6-methylpyridine-2-carboxamide] | 8.9 |  | 100 |  |
| Cc1cccc(C(=O)Nc2cc3cn(CCC(C)(C)O)nc3cc2C(C)(C)O)n1 [Example 20, N-[2-(3-Hydroxy-3-methylbutyl)-6-(2-hydroxypropan-2-yl)-2H-indazol-5-yl]-6-methylpyridine-2-carboxamide] | 13.3 | 200 |  |  |
| CC(C)(O)c1cccc(C(=O)Nc2cc3cn(CCCC(F)(F)F)nc3cc2C(C)(C)O)n1 [Example 21, 6-(2-Hydroxypropan-2-yl)-N-[6-(2-hydroxypropan-2-yl)-2-(4,4,4-trifluorobutyl)-2H-indazol-5-yl]pyridine-2-carboxamide] | 117 | 1800 |  |  |
| CC(C)(O)c1cc2nn(CCC3(O)CC3)cc2cc1NC(=O)c1cccc(C(F)(F)F)n1 [Example 22, N-{2-[2-(1-Hydroxycyclopropyl)ethyl]-6-(2-hydroxypropan-2-yl)-2H-indazol-5-yl}-6-(trifluoromethyl)pyridine-2-carboxamide] | 3.7 |  |  |  |
| COCCn1cc2cc(NC(=O)c3cccc(C(F)(F)F)n3)c(C(=O)OC)cc2n1 [Intermediate 4-2, Methyl 2-(2-methoxyethyl)-5-({[6-(trifluoromethyl)pyridin-2-yl]carbonyl}amino)-2H-indazole-6-carboxylate] |  |  |  | 21.7 |
| COCCCn1cc2cc(NC(=O)c3cccc(C(F)(F)F)n3)c(C(=O)OC)cc2n1 [Intermediate 4-3, Methyl 2-(3-methoxypropyl)-5-({[6-(trifluoromethyl)pyridin-2-yl]carbonyl}amino)-2H-indazole-6-carboxylate] |  |  |  | 13 |
| COC(=O)c1cc2nn(CCC(C)(C)O)cc2cc1NC(=O)c1cccc(C(F)(F)F)n1 [Intermediate 4-4, Methyl 2-(3-hydroxy-3-methylbutyl)-5-({[6-(trifluoromethyl)pyridin-2-yl]carbonyl}amino)-2H-indazole-6-carboxylate] |  |  |  | 6.2 |
